What was measured:
[1] = Estimated water content of crystalline forms obtained by equilibration under defined relative humidity; type: physicochemical
Excerpt: Forms C, D, E and F can be prepared according to a process, wherein Fluvastatin sodium is exposed to an atmosphere having a defined relative humidity. […] As a rule the estimated water content can range from 3-6%. […] As a rule the estimated water content can range from 6-12%. […] As a rule the estimated water content can range from 15-22%. […] As a rule the estimated water content can range from 24-32%.

[2] = Water content of highly crystalline Form A (Karl Fisher titration); type: physicochemical
Procedure: Highly crystalline Fluvastatin sodium Form A can generally be prepared by equilibration of an aqueous suspension or solution of Fluvastatin sodium for several hours at temperatures from about 0 to 10° C. and subsequent drying by lyophilization. The process can be accelerated by additional seeding with crystals of Form A during the equilibration period. A characteristic X-ray powder diffraction pattern for highly crystalline Form A is depicted in FIG. 1. The crystallinity of this material is estimated by the powder diffraction spectrum to be more than 90%. The estimated water content is below 2%.
A 30 ml aqueous solution of 30° C. containing ca. 3 grams of Fluvastatin sodium was cooled to about 2° C. and was allowed to stand at this temperature for 6 hours. Subsequently, the off-white coloured suspension was frozen using a dry-ice bath and dried by lyophilization for 24 hours. […] From its X-ray powder diffraction pattern it was estimated that the crystallinity is more than 90%, see FIG. 1.

[3] = compared with Form A or the amorphous form; from WO-A-97/49681 / U.S. Pat. No. 6,124,340; cited from earlier work

CC(C)n1c(/C=C/[C@H](O)C[C@H](O)CC(=O)[O-])c(-c2ccc(F)cc2)c2ccccc21.[Na+] (racemic) [Form F, (±)-7-(3-(4-fluorophenyl)-1-(1-methylethyl)-1H-indol-2-yl)-3,5-dihydroxy-6-heptenoic acid monosodium salt]
estimated water content ([1]; equilibration under relative humidity from about 80 to 90% (for example several days)): 24-32%

CC(C)n1c(/C=C/[C@H](O)C[C@H](O)CC(=O)[O-])c(-c2ccc(F)cc2)c2ccccc21.[Na+] (racemic) [Form A, (±)-7-(3-(4-fluorophenyl)-1-(1-methylethyl)-1H-indol-2-yl)-3,5-dihydroxy-6-heptenoic acid monosodium salt]
water content ([2]; Karl Fisher titration, Example 1, lyophilized 24 hours): below 2%
estimated water content ([2]; aqueous suspension or solution equilibrated at about 0 to 10° C., then lyophilization): below 2%

CC(C)n1c(/C=C/[C@H](O)C[C@H](O)CC(=O)[O-])c(-c2ccc(F)cc2)c2ccccc21.[Na+] (racemic) [Form D, (±)-7-(3-(4-fluorophenyl)-1-(1-methylethyl)-1H-indol-2-yl)-3,5-dihydroxy-6-heptenoic acid monosodium salt]
estimated water content ([1]; equilibration under relative humidity from about 30 to 50% (for example 6 to 24 hours)): 6-12%

CC(C)n1c(/C=C/[C@H](O)C[C@H](O)CC(=O)[O-])c(-c2ccc(F)cc2)c2ccccc21.[Na+] (racemic) [Form B, (±)-7-(3-(4-fluorophenyl)-1-(1-methylethyl)-1H-indol-2-yl)-3,5-dihydroxy-6-heptenoic acid monosodium salt]
hygroscopicity [3]: less hygroscopic than Form A or the amorphous form

CC(C)n1c(/C=C/[C@H](O)C[C@H](O)CC(=O)[O-])c(-c2ccc(F)cc2)c2ccccc21.[Na+] (racemic) [Form E, (±)-7-(3-(4-fluorophenyl)-1-(1-methylethyl)-1H-indol-2-yl)-3,5-dihydroxy-6-heptenoic acid monosodium salt]
estimated water content ([1]; equilibration under relative humidity from about 55 to 75% (for example several days)): 15-22%

CC(C)n1c(/C=C/[C@H](O)C[C@H](O)CC(=O)[O-])c(-c2ccc(F)cc2)c2ccccc21.[Na+] (racemic) [Form C, (±)-7-(3-(4-fluorophenyl)-1-(1-methylethyl)-1H-indol-2-yl)-3,5-dihydroxy-6-heptenoic acid monosodium salt]
estimated water content ([1]; equilibration under relative humidity from about 15 to 25% (for example 6 to 24 hours)): 3-6%

Reference: patent publication US6696479B2, “Crystalline forms” (Ciba Specialty Chemicals Corporation, priority 2001, dated 2004)
